# B1: AVDFIPVENLETTMRSPVFTDNSSPPVVPQSFQVAHLHAPTGSGKSTKVPAAYAAQGYKVLVLNPS (peptide)
# chain: AVDFIPVENLETTMRSPVFTDNSSPPVVPQSFQVAHLHAPTGSGKSTKVPAAYAAQGYKVLVLNPS
# B2: GCSGGAYDIIICDECHSTDATSILGIGTVLDQAETAGARLVVLATATPPGSVTVPHPNIEEVAL (peptide)
# chain: GCSGGAYDIIICDECHSTDATSILGIGTVLDQAETAGARLVVLATATPPGSVTVPHPNIEEVAL
# How the values were obtained:
# Assay type in all cases: binding, human
# antibodies to HCV [1] = test: Peptide ELISA for relative immunoreactivity, 8 member HCV serum panel (Panel I); settings: NS-3 peptides (Tables 4B-4D), relative to pep3 (279A)
# antibodies to HCV [2] = test: NS-1 peptide ELISA, early and late HCV infection panels
# Method: In addition, all sixteen NS-1 peptides were tested on panels of samples representing HCV-antibody positive donors (n=9) in an early stage of infection, namely plasmapheresis donors with the first occurrence of an ALT level >100 i.u./L, and those asymptomatic individuals (n=14) disqualified from blood donation because of a reactive result for anti-HIV or HBc, for whom the anti-HCV result probably represents a past infection.
# These select panels were chosen from hundreds of HCV positive sera for their ability to recognize NS-1 antigens. For both groups, peptide designated as 232A (pep2) had the greatest immunoreactivity. Using pep2 as a standard, the relative immunoreactivity of each peptide was calculated (Table 3C).
# antibodies to HCV [3] = test: NS-1 peptide ELISA, Panel II (asymptomatic individuals, mainland China and Taiwan); settings: for % IP: NS-1 peptides, Panel II (CH1-CH7), relative to pep1 (231C)
# Method: Wells of 96-well plates were coated for 1 hour at 37° C. with each of the 16 peptides (designated as peptides 241A-C, 231A-E, 232A-D, 233C, 234A-C), synthesized according to sequences derived from the NS-1 region (Table 3A), at 5 ug/mL at 100 uL per well in 10 mM NaHCO3 buffer, pH 9.5. Each peptide's immunoreactivity was measured as previously described (see Example 1), using an 8 member serum panel (Panel I).
# A panel of serum samples from individuals coming from regions in which hepatitis C is endemic, namely mainland China and Taiwan, were tested for evidence of reactivity to these NS-1 protein derived peptides. Twenty-four samples were chosen from individuals who had no recognizable symptoms of non-A, non-B hepatitis and for whom the peptide based HCV EIA, Format C, as described in Example 11, was nonreactive. Seven of the 24 samples (29%) were reactive against one or more peptides from the NS-1 region, indicative of the presence of long term protective antibodies responsive to this region. This 7 member panel (designated as Panel II, CH1-CH7) was used to further characterize these NS-1 peptides for their immunoreactivity.
# The peptide with the greatest reactivity against the serum Panel II again was pep1 (designated 231c in Table 3A). Using this peptide as a standard, the relative immunoreactivity for each of the other 15 peptides from the NS-1 region are calculated in Table 3A.
# antibodies to HCV [4] = test: Peptide ELISA for relative immunoreactivity, 8 member HCV serum panel (Panel I); settings: Panel I
# Method: As an example to illustrate how relative (%) immunoreactivity for HCV synthetic peptides is measured, wells of 96-well plates are coated for 1 hour at 37° C., with each of the following peptides: IIH, V, VIIIE and pep11 at 5 ug/mL at 100 uL per well in 10 mM NaHCO3 buffer, pH 9.5. The peptide coated wells were then incubated with 250 uL of 3% by weight of gelatin in PBS in 37° C. for 1 hour to block non-specificprotein binding sites, followed by three washes with PBS containing 0.05% by volume of TWEEN 20 and then dried. The test specimens containing a panel of eight well-characterized HCV antibody positive patient sera were diluted with PBS containing 20% by volume normal goat serum, 1% by weight gelatin and 0.05% by volume TWEEN 20 at dilutions of 1:20 volume to volume, respectively. 200 uL of the diluted specimens were added to each of the wells and allowed to react for 15 minutes at 37° C.
# The wells were then washed six times with 0.05% by volume TWEEN 20 in PBS in order to remove unbound antibodies. Horseradish peroxidase conjugated goat anti-human IgG was used as a second antibody tracer to bind with the HCV antibody-peptide antigen complex formed in positive wells. 100 uL of peroxidase labeled goat anti-human IgG at a dilution of 1:1800 in 1% by volume normal goat serum, 0.05% by volume TWEEN 20 in PBS was added to each well and incubated at 37° C. for another 15 minutes.
# The wells were washed six times with 0.05% by volume TWEEN 20 PBS to remove unbound antibody and reacted with 100 uL of the substrate mixture containing 0.04% by weight orthophenylenediamine (OPD) and 0.12% by volume hydrogen peroxide in sodium citrate buffer, pH 5.0.
# This substrate mixture was used to detect the peroxidase label by forming a colored product. Reactions were stopped by the addition of 100 uL of 1.0M H2 SO4 and the A492 mm measured. Results of relative immunoreactivity for each of the peptides obtained from this study are shown in Table A using peptide II H as the reference.
# antibodies to HCV [5] = test: Envelope/NS-1 peptide ELISA, anti-HCV positive plasmapheresis donors with elevated ALT (Panel III); settings: envelope/NS-1 peptides; Panel III (17 samples); peptide 254B as a standard
# Method: To select a panel of samples with reactivity to peptides from the envelope/NS-1 region, 97 such samples from anti-HCV positive plasmapheresis donors with elevated ALT levels were tested with peptide 254B. […] 17 samples with the greatest reactivity with peptide 254B were chosen to form a third panel (Panel III) to screen for the immunoreactivity of the other 20 peptides from the envelope/NS-1 region. The individual absorbance values of each of the 17 samples on the four peptides with the greatest reactivity, i.e. 255C (pep7), 254B (pep8), 247B (pep9), and 246D (pep10), are listed in Table 8b.
# antibodies to HCV [6] = test: EIA of NS-3 peptides before and after pH adjustment
# Method: Peptides dissolved at 1 mg/mL in H2 O, pH 4, were titrated to pH 11 by addition of diluted NaOH. After 5 min at pH 11, the pH of the peptide solution was brought down to 7.0 using diluted HCl. Immunoreactivity of the peptides thus treated was compared with reactivity prior to pH adjustment (Table 4E). Two-to three-fold increases in A492 nm were seen. Some previously non-reactive serum samples were able to react with pH adjusted peptides. For instance, serum sample 1, which is non-reactive to 261C, has an absorbance of 1401 mA when tested with the corresponding pH adjusted peptide.
# [7] = Early HCV Infection panel, n = 9
# [8] = Late HCV Infection panel, n = 14
# [9] = serum sample 1, Ctrl (prior to pH adjustment)
# [10] = serum sample 1, pH adj (pH 11 for 5 min, then 7.0)
molecule,measurement,setting,value
PNIRTGVRTITTGSPITYSTYGKFLADGGCSGGAYDIIICDECHSTDAT [262D],% Relative Immunoreactivity,antibodies to HCV [1],9.3%
QGWGPISYANGSGPDQRPYCWHYPPKPCGIVPAKSVC [241A],% Relative Immunoreactivity in comparison to Pep2 (232A),antibodies to HCV [2]; [7],23.9%
same,% Relative Immunoreactivity in comparison to Pep2 (232A),antibodies to HCV [2]; [8],43.8%
same,% IP,antibodies to HCV [3],63.9%
QGWGPISYANGSGPDQRPYCWHYPPKPCGIVPAKSVCGPVYC [231C],% Relative Immunoreactivity in comparison to Pep2 (232A),antibodies to HCV [2]; [7],88.6%
same,% Relative Immunoreactivity in comparison to Pep2 (232A),antibodies to HCV [2]; [8],62.7%
same,immunopotency index,antibodies to HCV [4]; compared with peptide VIIIE,13.9%
same,% IP,antibodies to HCV [3],100.0%
same,A492 nm by EIA (mA),antibodies to HCV [3]; Panel II sample CH-1,2237 mA
same,A492 nm by EIA (mA),antibodies to HCV [3]; Panel II sample CH-2,2472 mA
same,A492 nm by EIA (mA),antibodies to HCV [3]; Panel II sample CH-3,171 mA
same,A492 nm by EIA (mA),antibodies to HCV [3]; Panel II sample CH-4,218 mA
same,A492 nm by EIA (mA),antibodies to HCV [3]; Panel II sample CH-5,311 mA
same,A492 nm by EIA (mA),antibodies to HCV [3]; Panel II sample CH-6,247 mA
same,A492 nm by EIA (mA),antibodies to HCV [3]; Panel II sample CH-7,206 mA
RPYCWHYPPKPCGIVPAKSVCGPVYC [231A],% Relative Immunoreactivity in comparison to Pep2 (232A),antibodies to HCV [2]; [7],46.8%
same,% Relative Immunoreactivity in comparison to Pep2 (232A),antibodies to HCV [2]; [8],48.4%
same,% IP,antibodies to HCV [3],83.2%
RTITTGSPITYSTYGKFLADGGCSGGAYDIIICDECHS [275A],% Relative Immunoreactivity,antibodies to HCV [1],18.2%
SWGENDTDVFVLNNTRPPLGNWFGCTWMNSTGFTKVCGAPPC [232C],% Relative Immunoreactivity in comparison to Pep2 (232A),antibodies to HCV [2]; [7],21.7%
same,% Relative Immunoreactivity in comparison to Pep2 (232A),antibodies to HCV [2]; [8],22.0%
same,% IP,antibodies to HCV [3],27.9%
TIFKIRMYVGGVEHRLEAACNWTRGERCDLEDRDRSELS [234C],% Relative Immunoreactivity in comparison to Pep2 (232A),antibodies to HCV [2]; [7],12.1%
same,% Relative Immunoreactivity in comparison to Pep2 (232A),antibodies to HCV [2]; [8],44.5%
same,% IP,antibodies to HCV [3],8.8%
TQGCNCSIYPGHITGHRMAWDMMMWSPTA [254A],% Relative Immunoreactivity,antibodies to HCV [5],21.4%
VFVLNNTRPPLGNWFGCTWMNSTGFTKVCGAPPC [232B],% Relative Immunoreactivity in comparison to Pep2 (232A),antibodies to HCV [2]; [7],91.4%
same,% Relative Immunoreactivity in comparison to Pep2 (232A),antibodies to HCV [2]; [8],83.5%
same,% IP,antibodies to HCV [3],82.9%
VGGVEHRLEAACNWTRGERCDLEDRDRSELS [234B],% Relative Immunoreactivity in comparison to Pep2 (232A),antibodies to HCV [2]; [7],13.2%
same,% Relative Immunoreactivity in comparison to Pep2 (232A),antibodies to HCV [2]; [8],20.9%
same,% IP,antibodies to HCV [3],17.9%
B1,A492 nm (mA) by EIA,antibodies to HCV [6]; [9],8 mA
same,A492 nm (mA) by EIA,antibodies to HCV [6]; [10],973 mA
same,A492 nm (mA) by EIA,"antibodies to HCV [6]; serum sample 2, Ctrl",74 mA
same,A492 nm (mA) by EIA,"antibodies to HCV [6]; serum sample 2, pH adj",255 mA
same,A492 nm (mA) by EIA,"antibodies to HCV [6]; serum sample 3, Ctrl",29 mA
same,A492 nm (mA) by EIA,"antibodies to HCV [6]; serum sample 3, pH adj",141 mA
same,A492 nm (mA) by EIA,"antibodies to HCV [6]; serum sample 4, Ctrl",17 mA
same,A492 nm (mA) by EIA,"antibodies to HCV [6]; serum sample 4, pH adj",158 mA
same,% IP,"antibodies to HCV [4]; NS-3 peptides (Table 4A), relative to pep3 (279A)",11.8%
B2,A492 nm (mA) by EIA,antibodies to HCV [6]; [9],628 mA
same,A492 nm (mA) by EIA,antibodies to HCV [6]; [10],1604 mA
same,A492 nm (mA) by EIA,"antibodies to HCV [6]; serum sample 2, Ctrl",148 mA
same,A492 nm (mA) by EIA,"antibodies to HCV [6]; serum sample 2, pH adj",466 mA
same,A492 nm (mA) by EIA,"antibodies to HCV [6]; serum sample 3, Ctrl",9 mA
same,A492 nm (mA) by EIA,"antibodies to HCV [6]; serum sample 3, pH adj",625 mA
same,A492 nm (mA) by EIA,"antibodies to HCV [6]; serum sample 4, Ctrl",464 mA
same,A492 nm (mA) by EIA,"antibodies to HCV [6]; serum sample 4, pH adj",1144 mA
